Bridge positions count the residues as written; N and C are the ends. Square brackets hold non-standard residues; d marks the D form. Peptide text beside a SMILES is read from it. R8 = C=CCCCCCC[C@@](C)(N)C(=O)O; S5 = C=CCCC[C@](C)(N)C(=O)O; Nle = CCCC[C@H](N)C(=O)O
Legend:
E. coli = format: cell-based, Escherichia coli
Method in brief: (§1)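 Read-out is visible growth: the MIC is the lowest peptide concentration showing none after 20-24 hours at 37° C. Bacteria in refined (anion-exchanged) Mueller-Hinton broth were seeded at a final 5×10^5 CFU/ml onto water-based peptide serial dilutions.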

S. aureus = format: cell-based, Staphylococcus aureus
Method in brief: as §1

P. aeruginosa = format: cell-based, Pseudomonas aeruginosa
Method in brief: as §1

B. cereus = format: cell-based, Bacillus cereus
Method in brief: as §1

human red blood cells = format: cell-based; details: red cells of human, 1 h, 25
Method in brief: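 Washed human RBCs as 1% (v/v) suspension in phosphate-buffered saline incubated 1 h at 37° C with serially diluted peptides. Hemoglobin release in supernatant measured spectrophotometrically (570 nm), % hemolysis relative to untreated and 1% Triton-X100 controls; MHC defined as concentration giving less than 1% release.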

| SMILES | MIC E. coli (E. coli) [µg/mL] | MIC S. aureus (S. aureus) [µg/mL] | MIC P. aeruginosa (P. aeruginosa) [µg/mL] | MIC B. cereus (B. cereus) [µg/mL] | % Hemolysis at 25 μg/ml (human red blood cells) [%] |
| --- | --- | --- | --- | --- | --- |
| CCCC[C@H](NC(=O)[C@@H](NC(=O)[C@H](CCC(=O)O)NC(=O)CNC(=O)[C@@H](NC(=O)[C@H](Cc1ccccc1)NC(=O)[C@H](C)NC(=O)[C@H](CCCCN)NC(=O)CNC(=O)[C@H](Cc1ccccc1)NC(=O)[C@H](CCCCN)NC(=O)[C@]1(C)CCCC=CCCCCCC[C@@](C)(NC(=O)[C@@H](NC(=O)CN)[C@@H](C)CC)C(=O)N[C@@H](CCCCN)C(=O)N[C@@H](Cc2ccccc2)C(=O)N[C@@H](CC(C)C)C(=O)N[C@@H](Cc2c[nH]cn2)C(=O)N[C@@H](CO)C(=O)N[C@@H](C)C(=O)N1)C(C)C)[C@@H](C)CC)C(=O)N[C@@H](CC(N)=O)C(=O)N[C@@H](CO)C(N)=O [Mag(i + 7)2] (H-GI[R8]KFLHSA[S5]KFGKAFVGEI[Nle]NS-NH2; staple 3-10 (inferred); N-terminus and C-terminus assumed) | 3.1 | 12.5 | 12.5 | 6.2 | 69.3 |
| CCCC[C@H](NC(=O)[C@@H](NC(=O)[C@H](CCC(=O)O)NC(=O)CNC(=O)[C@@H](NC(=O)[C@H](Cc1ccccc1)NC(=O)[C@H](C)NC(=O)[C@H](CCCCN)NC(=O)CNC(=O)[C@H](Cc1ccccc1)NC(=O)[C@]1(C)CCCC=CCCCCCC[C@@](C)(NC(=O)CNC(=O)[C@@H](NC(=O)CN)[C@@H](C)CC)C(=O)N[C@@H](Cc2ccccc2)C(=O)N[C@@H](CC(C)C)C(=O)N[C@@H](Cc2c[nH]cn2)C(=O)N[C@@H](CO)C(=O)N[C@@H](C)C(=O)N[C@@H](CCCCN)C(=O)N1)C(C)C)[C@@H](C)CC)C(=O)N[C@@H](CC(N)=O)C(=O)N[C@@H](CO)C(N)=O [Mag(i + 7)3] (H-GIG[R8]FLHSAK[S5]FGKAFVGEI[Nle]NS-NH2; staple 4-11 (inferred); N-terminus and C-terminus assumed) | 6.2 | 12.5 | 25 | 12.5 | 52.5 |
| CCCC[C@H](NC(=O)[C@@H](NC(=O)[C@H](CCC(=O)O)NC(=O)CNC(=O)[C@@H](NC(=O)[C@H](Cc1ccccc1)NC(=O)[C@H](C)NC(=O)[C@H](CCCCN)NC(=O)CNC(=O)[C@]1(C)CCCC=CCCCCCC[C@@](C)(NC(=O)[C@H](CCCCN)NC(=O)CNC(=O)[C@@H](NC(=O)CN)[C@@H](C)CC)C(=O)N[C@@H](CC(C)C)C(=O)N[C@@H](Cc2c[nH]cn2)C(=O)N[C@@H](CO)C(=O)N[C@@H](C)C(=O)N[C@@H](CCCCN)C(=O)N[C@@H](CCCCN)C(=O)N1)C(C)C)[C@@H](C)CC)C(=O)N[C@@H](CC(N)=O)C(=O)N[C@@H](CO)C(N)=O [Mag(i + 7)4] (H-GIGK[R8]LHSAKK[S5]GKAFVGEI[Nle]NS-NH2; staple 5-12 (inferred); N-terminus and C-terminus assumed) | 1.6 | 25 | 3.1 | 6.2 | 42.6 |
| CCCC[C@H](NC(=O)[C@@H](NC(=O)[C@H](CCC(=O)O)NC(=O)CNC(=O)[C@@H](NC(=O)[C@H](Cc1ccccc1)NC(=O)[C@H](C)NC(=O)[C@H](CCCCN)NC(=O)[C@]1(C)CCCC=CCCCCCC[C@@](C)(NC(=O)[C@H](Cc2ccccc2)NC(=O)[C@H](CCCCN)NC(=O)CNC(=O)[C@@H](NC(=O)CN)[C@@H](C)CC)C(=O)N[C@@H](Cc2c[nH]cn2)C(=O)N[C@@H](CO)C(=O)N[C@@H](C)C(=O)N[C@@H](CCCCN)C(=O)N[C@@H](CCCCN)C(=O)N[C@@H](Cc2ccccc2)C(=O)N1)C(C)C)[C@@H](C)CC)C(=O)N[C@@H](CC(N)=O)C(=O)N[C@@H](CO)C(N)=O [Mag(i + 7)5] (H-GIGKF[R8]HSAKKF[S5]KAFVGEI[Nle]NS-NH2; staple 6-13 (inferred); N-terminus and C-terminus assumed) | 3.1 | 6.2 | 3.1 | 3.1 | 87.0 |
| CCCC[C@H](NC(=O)[C@@H](NC(=O)[C@H](CCC(=O)O)NC(=O)CNC(=O)[C@@H](NC(=O)[C@H](Cc1ccccc1)NC(=O)[C@H](C)NC(=O)[C@]1(C)CCCC=CCCCCCC[C@@](C)(NC(=O)[C@H](CC(C)C)NC(=O)[C@H](Cc2ccccc2)NC(=O)[C@H](CCCCN)NC(=O)CNC(=O)[C@@H](NC(=O)CN)[C@@H](C)CC)C(=O)N[C@@H](CO)C(=O)N[C@@H](C)C(=O)N[C@@H](CCCCN)C(=O)N[C@@H](CCCCN)C(=O)N[C@@H](Cc2ccccc2)C(=O)NCC(=O)N1)C(C)C)[C@@H](C)CC)C(=O)N[C@@H](CC(N)=O)C(=O)N[C@@H](CO)C(N)=O [Mag(i + 7)6] (H-GIGKFL[R8]SAKKFG[S5]AFVGEI[Nle]NS-NH2; staple 7-14 (inferred); N-terminus and C-terminus assumed) | 3.1 | 6.2 | 25 | 6.2 | 47.1 |
| CCCC[C@H](NC(=O)[C@@H](NC(=O)[C@H](CCC(=O)O)NC(=O)CNC(=O)[C@@H](NC(=O)[C@H](Cc1ccccc1)NC(=O)[C@]1(C)CCCC=CCCCCCC[C@@](C)(NC(=O)[C@H](Cc2c[nH]cn2)NC(=O)[C@H](CC(C)C)NC(=O)[C@H](Cc2ccccc2)NC(=O)[C@H](CCCCN)NC(=O)CNC(=O)[C@@H](NC(=O)CN)[C@@H](C)CC)C(=O)N[C@@H](C)C(=O)N[C@@H](CCCCN)C(=O)N[C@@H](CCCCN)C(=O)N[C@@H](Cc2ccccc2)C(=O)NCC(=O)N[C@@H](CCCCN)C(=O)N1)C(C)C)[C@@H](C)CC)C(=O)N[C@@H](CC(N)=O)C(=O)N[C@@H](CO)C(N)=O [Mag(i + 7)7] (H-GIGKFLH[R8]AKKFGK[S5]FVGEI[Nle]NS-NH2; staple 8-15 (inferred); N-terminus and C-terminus assumed) | 3.1 | 3.1 | 6.2 | 3.1 | 95.5 |
| CCCC[C@H](NC(=O)[C@@H](NC(=O)[C@H](CCC(=O)O)NC(=O)CNC(=O)[C@@H](NC(=O)[C@]1(C)CCCC=CCCCCCC[C@@](C)(NC(=O)[C@H](CO)NC(=O)[C@H](Cc2c[nH]cn2)NC(=O)[C@H](CC(C)C)NC(=O)[C@H](Cc2ccccc2)NC(=O)[C@H](CCCCN)NC(=O)CNC(=O)[C@@H](NC(=O)CN)[C@@H](C)CC)C(=O)N[C@@H](CCCCN)C(=O)N[C@@H](CCCCN)C(=O)N[C@@H](Cc2ccccc2)C(=O)NCC(=O)N[C@@H](CCCCN)C(=O)N[C@@H](C)C(=O)N1)C(C)C)[C@@H](C)CC)C(=O)N[C@@H](CC(N)=O)C(=O)N[C@@H](CO)C(N)=O [Mag(i + 7)8] (H-GIGKFLHS[R8]KKFGKA[S5]VGEI[Nle]NS-NH2; staple 9-16 (inferred); N-terminus and C-terminus assumed) | 1.6 | 6.2 | 3.1 | 3.1 | 85.4 |
| CCCC[C@H](NC(=O)[C@@H](NC(=O)[C@H](CCC(=O)O)NC(=O)CNC(=O)[C@]1(C)CCCC=CCCCCCC[C@@](C)(NC(=O)[C@H](C)NC(=O)[C@H](CO)NC(=O)[C@H](Cc2c[nH]cn2)NC(=O)[C@H](CC(C)C)NC(=O)[C@H](Cc2ccccc2)NC(=O)[C@H](CCCCN)NC(=O)CNC(=O)[C@@H](NC(=O)CN)[C@@H](C)CC)C(=O)N[C@@H](CCCCN)C(=O)N[C@@H](Cc2ccccc2)C(=O)NCC(=O)N[C@@H](CCCCN)C(=O)N[C@@H](C)C(=O)N[C@@H](Cc2ccccc2)C(=O)N1)[C@@H](C)CC)C(=O)N[C@@H](CC(N)=O)C(=O)N[C@@H](CO)C(N)=O [Mag(i + 7)9] (H-GIGKFLHSA[R8]KFGKAF[S5]GEI[Nle]NS-NH2; staple 10-17 (inferred); N-terminus and C-terminus assumed) | 3.1 | 3.1 | 3.1 | 3.1 | 94.6 |
| CCCC[C@H](NC(=O)[C@@H](NC(=O)[C@H](CCC(=O)O)NC(=O)[C@]1(C)CCCC=CCCCCCC[C@@](C)(NC(=O)[C@H](CCCCN)NC(=O)[C@H](C)NC(=O)[C@H](CO)NC(=O)[C@H](Cc2c[nH]cn2)NC(=O)[C@H](CC(C)C)NC(=O)[C@H](Cc2ccccc2)NC(=O)[C@H](CCCCN)NC(=O)CNC(=O)[C@@H](NC(=O)CN)[C@@H](C)CC)C(=O)N[C@@H](Cc2ccccc2)C(=O)NCC(=O)N[C@@H](CCCCN)C(=O)N[C@@H](C)C(=O)N[C@@H](Cc2ccccc2)C(=O)N[C@@H](C(C)C)C(=O)N1)[C@@H](C)CC)C(=O)N[C@@H](CC(N)=O)C(=O)N[C@@H](CO)C(N)=O [Mag(i + 7)10] (H-GIGKFLHSAK[R8]FGKAFV[S5]EI[Nle]NS-NH2; staple 11-18) | 3.1 | 3.1 | 6.2 | 6.2 | 53.1 |

Source: US20200231638A1, “STABILIZED ANTI-MICROBIAL PEPTIDES” (priority 2015, published 2020)
